Experimental data published in patent US20250163057A1, “DCN-1 MODULATING COMPOUNDS AND METHODS OF USE THEREOF” (Cellarity, Inc., priority 2023, published 2025).

Legend:
[1] = Preliminary pharmacokinetic studies (serum exposure); assay type: in vivo, wild-type mice
[2] = test system: fetal hemoglobin protein (HbF) in human erythroid progenitor cells; experiment: Humanized mouse model: HbF protein in bone marrow by AlphaLISA; assay type: in vivo, NBSGW mice reconstituted with human CD34+ cells; conditions: for HbF protein levels (AlphaLISA) normalized for % GlyA+ cells: FIG. 10B, most treatment groups
Excerpt: (§1) Results: To evaluate induction of target cell activity in the bone marrow, a humanized mouse model was developed. This model entails the reconstitution of human hematopoietic progenitor cells within the bone marrow of immunodeficient nonirradiated NOD.Cg-KitW-41J Tyr^+ Prkdc^scid Il2rg^tmlwjl/ThomJ (NBSGW) strain recipient mice. These mice are competent to engraft and differentiate human erythroid progenitor cells that express human adult hemoglobin mRNA and protein subunits within bone marrow.
(§2) Based on these exposure results, humanized mice were treated with either the clinical standard of care compound, hydroxyurea (50 mg/kg; bid), or I-73, at 25 and 100 mg/kg (bid), by oral gavage over a three-week period. At the end of the treatment period, bone marrow was harvested for flow cytometry, as well as for assessment of HbF protein and fetal hemoglobin (HBG1) mRNA levels. Levels of both HbF protein and HBG1 mRNA were normalized to the percentage of human erythroid progenitor cells in the bone marrow of each mouse as determined by immunofluorescence staining for human Glycophorin A cell membrane expression. […] In addition, relative levels of fetal hemoglobin to those of potentially sickling-prone adult hemoglobin (HBB) was assessed.
(§3) Female, 6-week-old NOD.Cg-Kit^W-41J Tyr^+ Prkdc^scid Il2rg^tm1Wjl/ThomJ (NBSGW) mice (Jackson Laboratory strain #[…]) were used for these studies. The mice were acclimatized to laboratory conditions for 5 days prior to inoculation.
(§4) GCSF-mobilized human CD34+ cells were removed from liquid nitrogen storage, thawed in a 37° C. water bath and transferred quickly into a 50 mL conical tube. Cryovial was rinsed once with thaw buffer, 0.1% BSA in phosphate buffered saline (PBS), and buffer was transferred and combined with the original contents in the 50 mL conical tube. Next, doubling volumes of thaw buffer was added to the conical and gently swirled for ˜30 seconds to one minute until the volume in the conical was 32 mL. Cells and buffer were centrifuged at 300G for 8 minutes, and the supernatants were aspirated. Cells were counted by resuspending in 1 mL of thawing buffer per million of cells to a target concentration range of 0.5 to 2M/ml and counting with AOPI (1:1) on a luna cell counter to confirm the concentration of cells/mL. The cell concentration was adjusted to 3×10^6 cells/ml. For each mouse, 300 thousand cells in 0.1 ml were injected into the tail vein with a 25-gauge needle.
(§5) On day 56 after human cell adoptive transfer, whole blood was collected from each mouse by submandibular bleed and a 100 μL sample of EDTA whole blood was transferred to a 2 ml tube containing 1.8 mL ACK Lysing Buffer at room temperature (RT), and then inverted to mix. Samples were incubated at RT for 15 min in the dark to lyse. After lysis, samples are centrifuged at 500×g for 5 minutes at RT to enable supernatant decanting. Remaining cells were washed with 1 mL of PBS-0.5% BSA and centrifuged at 500×g for 5 minutes at 4° C. Supernatant was decanted and cells were stained with leukocyte markers (human and mouse CD45 antibodies; BD347464, BD557659) to confirm human cell engraftment. Mice having less than one percent, or greater than ten percent, human CD45 positive cells were excluded from the subsequent study. Remaining mice were then randomized into treatment groups based on percentage of human cell engraftment. Each treatment group included 10-11 mice.
(§6) Compound I-73 was dissolved in a 5% Cremophor RH40, 20% hydroxylpropyl-β-cyclodextrin solution. Hydroxyurea was solubilized in PBS. Formulations were prepared fresh daily. Commencing on day 84 post human cell engraftment, mice were treated by oral gavage with either I-73, hydroxyurea or their respective vehicles, for a period of three weeks using either once daily (QD) or twice daily (BID) dosing regimens. Mice were monitored daily for body weight and condition. […]

[3] = test system: fetal hemoglobin gene expression (HBG1) in human erythroid progenitor cells; experiment: Humanized mouse model: fetal hemoglobin mRNA (HBG1, HBB) in bone marrow by Nanostring; assay type: in vivo, NBSGW mice reconstituted with human CD34+ cells; conditions: for HBG1 expression compared to vehicle (HBG1 alone or HBG1 to total beta hemoglobin mRNA): FIGS. 11A-11C, various doses and treatment regimes
Excerpt: as §1, §2, §3, §4, §5, §6

[4] = test system: HbF in GlyA+ human erythroid precursor cells; experiment: Humanized mouse model: F-cells (GlyA+ cells with detectable HbF) by flow cytometry; assay type: in vivo, NBSGW mice reconstituted with human CD34+ cells; conditions: FIG. 10A, all treatment groups
Experimental: FIG. 5 is FACS results showing the percentage of GlyA+ cells which also have detectable HbF protein levels in them (called F-cells).
as §3
as §4, with “Cells and buffer were centrifuged at 300G for 8 minutes, and the supernatants were aspirated.” left out, “The cell concentration was adjusted to 3×10^6 cells/ml. For each mouse, 300 thousand cells in 0.1 ml were injected into the tail vein with a 25-gauge needle.” left out
Compound I-73 was dissolved in a 5% Cremophor RH40, 20% hydroxylpropyl-β-cyclodextrin solution. […] Mice were monitored daily for body weight and condition. […]
After 21 days of dosing, all mice were euthanized and prepared for bone marrow collection. […] Extracted cells were counted and aliquoted to prepare for analysis. […]

[5] = humanized mouse model, human erythroid progenitor cells, dose not given at this place

CCN1C(=O)[C@@H](NC(=O)c2cccc(C(F)(F)F)c2)[C@@H](c2ccc(F)cc2)c2c([C@@H](C)NC#N)nn(-c3ccccc3)c21 [Compound I-73, N-((4S,5S)-3-((R)-1-cyanamidoethyl)-7-ethyl-4-(4-fluorophenyl)-6-oxo-1-phenyl-4,5,6,7-tetrahydro-1H-pyrazolo[3,4-b]pyridin-5-yl)-3-(trifluoromethyl)benzamide]
serum concentrations relative to that required to inhibit DCN-1 ([1]; dosing at 25 and 100 mg/kg): equivalent to or greater than that required to inhibit DCN-1
in vivo serum exposure levels ([1]; wild-type mice): predicted to be sufficient for fetal hemoglobin induction
HbF protein levels in bone marrow (AlphaLISA) compared to vehicle-treated mice ([2]; 25 and 100 mg/kg bid, oral gavage, three weeks, normalized to % GlyA+ cells (FIG. 1A)): significantly increases
HbF protein levels (AlphaLISA) normalized for % GlyA+ cells [2]: increased HbF protein levels
difference in HbF protein levels between the 25 and the 100 mg/kg doses ([2]; bid, oral gavage, three weeks): no significant difference
induction of fetal hemoglobin protein (HbF) [2, 5]: an induction of both HBG1 mRNA and HbF protein was observed
HBG1 mRNA transcript levels (Nanostring) ([3]; 25 and 100 mg/kg bid, oral gavage, three weeks (FIG. 1B)): enhanced transcript levels
ratios of HBG1 to HBB mRNA compared with hydroxyurea (50 mg/kg bid) ([3]; 25 and 100 mg/kg bid, oral gavage, three weeks (FIG. 1C)): significantly greater ratios
HBG1 expression compared to vehicle (HBG1 alone or HBG1 to total beta hemoglobin mRNA) [3]: increased HBG1 expression compared to vehicle
induction of fetal hemoglobin mRNA (HBG1) [3, 5]: an induction of both HBG1 mRNA and HbF protein was observed
ratio of fetal HBG1 hemoglobin mRNA to adult hemoglobin mRNA (HBB), compared with HU ([3]; humanized mouse model, dose not given at this place): significantly greater than HU standard of care
percentage of HbF expression in GlyA+ cells (F-cell analysis) [4]: increased percentage of HbF expression in GlyA+ cells

CCN1C(=O)[C@@H](NC(=O)c2cccc(C(F)(F)F)c2)[C@@H](C2CC2)c2c(C(=O)N3[C@H](C#N)C[C@H]4C[C@H]43)nn(C3CCOCC3)c21 [Compound I-256, N-((4S,5S)-3-((1R,3S,5R)-3-cyano-2-azabicyclo[3.1.0]hexane-2-carbonyl)-4-cyclopropyl-7-ethyl-6-oxo-1-(tetrahydro-2H-pyran-4-yl)-4,5,6,7-tetrahydro-1H-pyrazolo[3,4-b]pyridin-5-yl)-3-(trifluoromethyl)benzamide]
HbF protein levels (AlphaLISA) normalized for % GlyA+ cells [2]: increased HbF protein levels
HBG1 expression compared to vehicle (HBG1 alone or HBG1 to total beta hemoglobin mRNA) [3]: increased HBG1 expression compared to vehicle
percentage of HbF expression in GlyA+ cells (F-cell analysis) [4]: increased percentage of HbF expression in GlyA+ cells
